# Source: patent US8354372B2 (priority 2006, dated 2013)
# Bridge positions count the residues as written; N and C are the ends. Peptide text beside a SMILES is read from it.
# Assays:
# [1] = target: endoproteinase Glu-C (Endo Glu-C) (Staphylococcus aureus, UniProt P0C1U8); conditions: pH 8
# in vitro = conditions: human, plasma
# [2] = tested on: bovine adrenal chromaffin cells; format: cell-based
# endoproteinase Glu-C (Endo Glu-C), sequence (P0C1U8 69-336 limits assumed): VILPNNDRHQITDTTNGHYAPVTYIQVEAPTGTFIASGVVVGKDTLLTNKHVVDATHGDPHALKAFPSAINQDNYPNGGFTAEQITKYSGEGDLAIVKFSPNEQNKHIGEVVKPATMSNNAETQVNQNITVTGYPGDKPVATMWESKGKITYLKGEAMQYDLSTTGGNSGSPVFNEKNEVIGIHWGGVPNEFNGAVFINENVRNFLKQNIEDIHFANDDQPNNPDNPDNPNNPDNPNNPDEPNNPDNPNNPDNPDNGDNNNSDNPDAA
Structure (SMILES),intact peptide remaining on incubation with Endo-GluC [1],remaining at 24 h (in vitro),stability in human plasma relative to MII,"inhibition of nicotine-evoked catecholamine release, activity relative to linear MII [2]"
"CC(C)C[C@@H]1NC(=O)[C@H](CC(N)=O)NC(=O)[C@H](CO)NC(=O)[C@H](Cc2c[nH]cn2)NC(=O)[C@H](CCC(=O)O)NC(=O)[C@H](CC(C)C)NC(=O)[C@H](Cc2c[nH]cn2)NC(=O)[C@@H]2CSSC[C@@H]3NC(=O)CNC(=O)CNC(=O)CNC(=O)[C@H](C)NC(=O)[C@H](C)NC(=O)CNC(=O)CNC(=O)[C@H](CSSC[C@H](NC3=O)C(=O)N[C@@H](CO)C(=O)N[C@@H](CC(N)=O)C(=O)N3CCC[C@H]3C(=O)N[C@@H](C(C)C)C(=O)N2)NC1=O [cMII-6] (cyclo(AAGGGCCSNPVCHLEHSNLCGG); disulfide 6-12, 7-20)",remain entirely intact,~90%,dramatically greater than MII,comparable to linear MII
"CC(C)C[C@@H]1NC(=O)[C@H](CC(N)=O)NC(=O)[C@H](CO)NC(=O)[C@H](Cc2c[nH]cn2)NC(=O)[C@H](CCC(=O)O)NC(=O)[C@H](CC(C)C)NC(=O)[C@H](Cc2c[nH]cn2)NC(=O)[C@@H]2CSSC[C@@H]3NC(=O)CNC(=O)CNC(=O)[C@H](C)NC(=O)[C@H](C)NC(=O)CNC(=O)[C@H](C)NC(=O)CNC(=O)CNC(=O)[C@H](CSSC[C@H](NC3=O)C(=O)N[C@@H](CO)C(=O)N[C@@H](CC(N)=O)C(=O)N3CCC[C@H]3C(=O)N[C@@H](C(C)C)C(=O)N2)NC1=O [cMII-7] (cyclo(AAGGCCSNPVCHLEHSNLCGGAG); disulfide 5-11, 6-19)",remain entirely intact,~90%,dramatically greater than MII,comparable to linear MII
